Experimental data from patent publication US12319752B2, “Heparin-binding cationic peptide self-assembling peptide amphiphiles useful against drug-resistant bacteria” (priority 2016, dated 2025).
≈ marks a conversion by molar mass, not a printed value. Residues, ends and D or L forms follow the SMILES beside them. *: point of attachment. Palmitoyl = CCCCCCCCCCCCCCCC(=O)*

Experiments:
MRSA [1] = experiment: Viable colony count assay (bactericidal effect, 4 h); type: cell-based, methicillin-resistant S. aureus (MRSA, ATCC #43300)
Description: The bactericidal effects of the peptides were examined using a viable colony count assay as well as the live/dead staining assay. For the viable colony count assay, bacteria were treated with peptides for 4 h and the resulting viable bacterial density of each sample was expressed by log10[CFU/mL]. For the Gram-positive bacteria tested, the decrease in bacterial density was dependent on the concentration of the ACA-PA (FIG. 8A). […] As for Gram-negative E. coli and MDR E. coli bacteria (FIG. 8B), the ACA nanorods, wherein the PA were added at a concentration above their CMC, had potent bactericidal effects. For example, the ACA nanorods at concentrations over 60 μM reduced the colony forming units of Gram-negative bacteria by about a five log unit reduction after 4 h compared with the untreated negative control sample.
In addition, ACA-PA were mixed with heparin at various weight ratios (1:1, 1:2, and 1:3 ACA-PA to heparin ratios) to block the Cardin motif groups on the PA. The ACA-PA concentration used to treat bacteria (MRSA and MDR E. coli) was a constant 80 μM and only varied in the concentration of heparin.
The viable count assay was performed to quantify the bactericidal activity of each peptide. Stock solutions of peptides were diluted in 3% TSB media to concentrations ranging from 20 μM to 100 μM immediately before experiments. Heparin-ACA-PA were also prepared by mixing the ACA-PA stock solution with heparin (sodium salt from porcine intestinal mucosa, Sigma, St. Louis, MO) to 1:1, 1:2 and 1:3 weight ratios in water, and a final concentration of ACA-PA in the heparin-ACA-PA at each heparin weight ratio was adjusted to 80 μM for each experiment. The bacteria (10^6 CFU/mL) were incubated with peptides at 37° C. for 4 h. After incubation, serial dilutions of samples were plated on TSB agar and then incubated at 37° C. overnight. The colonies from each spot were manually counted, and the CFU number for each sample was determined. Experiments were conducted in triplicate and results were expressed as the log 10 values of the CFU number in each sample. Data were expressed by stand error of the mean (±S.E.M.) and N=3, *p<0.05 compared with control samples and #p<0.05 compared with bacteria treated with 40 μM of ACA-PA.

E. coli = experiment: Bacterial growth inhibition (growth curves, OD562, 20 h); type: cell-based, Escherichia coli (ATCC #25922)
Description: (§1) Gram-positive (S. aureus and MRSA) and Gram-negative (E. coli and MDR E. coli) bacteria were incubated with peptide concentrations ranging from 20 to 100 μM, and time-lapsed bacterial growth was monitored for 20 hours by determining the optical density at 562 nm (O.D. 562 nm). […] At the highest concentration tested (100 μM), the time to exponential growth phase of S. aurues was delayed by about 18 h (FIG. 5B), and was prolonged by almost 13 h for MRSA (FIG. 5A), while bacteria incubated without ACA-PA entered the exponential growth phase within 4 h. Gram-positive bacteria were also susceptible to the ACA-PA even below their CMC.
(§2) The MIC values of ACA-PA towards drug-resistant bacteria were determined after 24 h of incubation (Table 2).
(§3) This assay was performed to investigate the inhibitory effects of each peptide against Gram-positive Staphylococcus aureus (S. aureus, ATCC #25923) and methicillin-resistant S. aureus (MRSA, ATCC #43300), as well as Gram-negative Escherichia coli (E. coli, ATCC #25922), and multidrug-resistant E. coli (MDR E. coli, ATCC #BAA-2471). In all experiments, solutions of each peptide at the concentrations from 20 μM to 100 μM in 3% Tryptic Soy Broth (TSB) media were freshly prepared. A single colony of bacteria was isolated from a stock agar plate and cultured overnight in 4 mL of 3% TSB on a shaking incubator set at 200 rpm and 37° C. The bacteria culture was adjusted to an optical density at 562 nm (OD562) to about 0.52 (10^9 cells/mL), and the resulting bacteria suspension was subsequently diluted to about 10^6 colony forming units (CFU) per mL in each sample. The control samples were bacteria incubated in TSB media without peptides. The bacteria were incubated inside a spectrophotometer (Spectra-Max Paradigm, Molecular Devices, Sunnyvale, CA) at 37° C. under static conditions for 20 h, and the bacterial growth curves were measured in terms of turbidity at OD562 every 2 minutes. The normalized OD562 values of samples were calculated by subtracting the […].

MRSA [2] = experiment: as above; type: cell-based, methicillin-resistant S. aureus (MRSA, ATCC #43300)
Description: as §1, §2, §3

MRSA [3] = type: cell-based, methicillin-resistant S. aureus (MRSA, ATCC #43300); details: 24 h
Description: as §3, with “The bacteria culture was adjusted to an optical density at 562 nm (OD562) to about 0.52 (10^9 cells/mL), and the resulting bacteria suspension was subsequently diluted to about 10^6 colony forming units (CFU) per mL in each sample. The control samples were bacteria incubated in TSB media without peptides.” left out
The minimum inhibitory concentration (MIC) of ACA-PA was tested against drug-resistant bacteria and compared with conventional penicillin-streptomycin (10,000 U/mL, Thermo Fisher Scientific, Waltham, MA, USA) as well. […] The OD562 was measured at the end of treatment. […]

In the case of CCCCCCCCCCCCCCCC(=O)N[C@H](C(=O)N[C@H](C(=O)N[C@H](C(=O)N[C@H](C(=O)N[C@@H](CCCCN)C(=O)N[C@@H](CCCCN)C(=O)N[C@@H](CCCCN)C(=O)N[C@@H](CCCCN)C(=O)NCC(=O)N[C@@H](C)C(=O)N[C@@H](CCCCN)C(=O)N[C@@H](CCCCN)C(=O)N[C@@H](C)C(=O)N[C@@H](CCCNC(=N)N)C(=O)N[C@@H](C)C(=O)N[C@@H](C)C(=O)N[C@@H](CCCCN)C(=O)N[C@@H](CCCCN)C(=O)N[C@@H](C)C(=O)N[C@@H](CCCNC(=N)N)C(=O)N[C@@H](C)C(=O)O)C(C)C)C(C)C)C(C)C)C(C)C [ACA-PA, C16-V4K4G(AKKARA)2 (SEQ ID NO: 7)] (Palmitoyl-VVVVKKKKGAKKARAAKKARA-OH; N-terminus and C-terminus assumed), the “decrease in bacteria density” value (MRSA [1]; MRSA (Gram-positive), 60 to 100 μM) is reported as ~100 fold, the “number of viable bacteria colonies after mixing with heparin” value (MRSA [1]; MRSA, 80 μM ACA-PA, 1:1, 1:2, 1:3 ACA-PA to heparin weight ratios) is reported as “positively proportional to the amount of heparin added” and the “toxicity towards bacteria after mixing with heparin” value (MRSA [1]; MRSA, 80 μM ACA-PA, 1:3 ACA-PA to heparin weight ratio, 4 h) is reported as “no toxicity towards bacteria”. The “decline in bacteria density” value (MRSA [1]; MRSA, over 80 μM, 4 h) was 100 fold, the “decrease of colony forming units” value (MRSA [1]; MRSA, over 80 μM, 4 h) was “two” and the bacterial growth inhibition (E. coli; 20 to 100 μM, 20 h) was “remarkably inhibited the proliferation”. The bacterial proliferation (E. coli; concentrations higher than the CMC (60 μM to 100 μM)) was “significantly suppressed”, the bacterial growth inhibition (E. coli; concentrations lower than the CMC) was “did not significantly inhibit bacterial growth” and the “prolongation of time to exponential growth phase” value (MRSA [2]; 100 μM) was ~13 h. The bacterial growth inhibition (MRSA [2]; 20 to 100 μM, 20 h) was “remarkably inhibited the proliferation”, the “susceptibility of bacterial growth” value (MRSA [2]; below the CMC) was “susceptible” and the “Minimum inhibitory concentration (MIC)” value (MRSA [3]) was 300 µg/mL (≈ 121 µM).
